How the values were obtained:
Format in all cases: in vivo
[1] = test system: plants; experiment: Test D post-emergence, other plants of Tables D2 and D4; conditions: post-emergence
Description: (§1) A formulation containing 50 g/L of the test chemical was prepared by dissolving the active ingredient in a mixture of organic solvents and emulsifier, details of which are provided in the table. This formulation was then mixed with a small, variable amount of acetone to aid dissolution, before addition of a 0.2% v/v aqueous solution of an adjuvant, as the aqueous diluent, to form an aqueous spray solution which contains a predetermined concentration of the active ingredient.
(§2) This aqueous spray solution was then sprayed onto plants including maize and wheat that had been seed treated with a herbicide safener, after one day's cultivation (for pre-emergence) or after about 12 days' cultivation (for post-emergence). The plants were grown from seeds sown in standard soil, placed in a glasshouse under controlled conditions (at 24/18° C. or 20/16° C., day/night; 16 h light; 65% humidity). After spray application the plants were then grown in a glasshouse under the same conditions and watered twice daily. After 15 d for post-emergence and 20 DAA for pre-emergence the test was evaluated (100=total damage to plant; 0=no damage to plant).

[2] = test system: ivy-leaved morning glory (Ipomoea hederacea, IPOHE); experiment: Test A post-emergence, ivy-leaved morning glory; conditions: after 13 d
Summary of the method: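 Plants were grown 8 d in a glasshouse (24/16° C day/night, 14 h light, 65% humidity), then sprayed post-emergence at 15.625, 62.5 or 250 g/ha in acetone/water (50:50) with 0.5% Tween 20. Damage was scored visually after 13 d (0 = none, 100 = total).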

[3] = test system: wheat; experiment: Test D pre-emergence, wheat seed treated with a herbicide safener; conditions: 100=total damage, 0=no damage
Description: as §1, §2

[4] = test system: corn (Zea mays, ZEAMX); experiment: Test A pre-emergence, corn; conditions: after 13 d
Summary of the method: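 Seeds sown in pots of standard soil and sprayed one day later, pre-emergence, at 15.625, 62.5 or 250 g/ha in acetone/water (50:50) with 0.5% Tween 20. Grown in glasshouse at 24/16 °C, 14 h light, 65% humidity. Damage scored after 13 d (0 none, 100 total).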

For `CN1CC(c2cc(C(F)(F)F)n(C)n2)C(C(=O)Nc2cccc(F)c2F)C1=O` (racemic) [Compound 3], the “damage to plant (100=total damage to plant; 0=no damage to plant), BIDPI” value ([1]; rate 130, evaluated after 15 d) was 0, the “damage to plant (100=total damage to plant; 0=no damage to plant), BIDPI” value ([1]; rate 250, evaluated after 15 d) was 0 and the “damage to plant (100=total damage to plant; 0=no damage to plant), BIDPI” value ([1]; rate 500, evaluated after 15 d) was 0. The “damage to plant (100=total damage to plant; 0=no damage to plant), BRAPL” value ([1]; rate 130, evaluated after 15 d) was 40, the “damage to plant (100=total damage to plant; 0=no damage to plant), BRAPL” value ([1]; rate 250, evaluated after 15 d) was 60 and the “damage to plant (100=total damage to plant; 0=no damage to plant), BRAPL” value ([1]; rate 500, evaluated after 15 d) was 70. The “damage to plant (100=total damage to plant; 0=no damage to plant), CYPES” value ([1]; rate 130, evaluated after 15 d) was 0, the “damage to plant (100=total damage to plant; 0=no damage to plant), CYPES” value ([1]; rate 250, evaluated after 15 d) was 0 and the “damage to plant (100=total damage to plant; 0=no damage to plant), CYPES” value ([1]; rate 500, evaluated after 15 d) was 10. The “damage to plant (100=total damage to plant; 0=no damage to plant), DIGSA” value ([1]; rate 130, evaluated after 15 d) was 0, the “damage to plant (100=total damage to plant; 0=no damage to plant), DIGSA” value ([1]; rate 250, evaluated after 15 d) was 10 and the “damage to plant (100=total damage to plant; 0=no damage to plant), DIGSA” value ([1]; rate 500, evaluated after 15 d) was 60. The “damage to plant (100=total damage to plant; 0=no damage to plant), ECHCG” value ([1]; rate 130, evaluated after 15 d) was 40, the “damage to plant (100=total damage to plant; 0=no damage to plant), ECHCG” value ([1]; rate 250, evaluated after 15 d) was 60 and the “damage to plant (100=total damage to plant; 0=no damage to plant), ECHCG” value ([1]; rate 500, evaluated after 15 d) was 80. The “damage to plant (100=total damage to plant; 0=no damage to plant), ELEIN” value ([1]; rate 130, evaluated after 15 d) was 0, the “damage to plant (100=total damage to plant; 0=no damage to plant), ELEIN” value ([1]; rate 250, evaluated after 15 d) was 0 and the “damage to plant (100=total damage to plant; 0=no damage to plant), ELEIN” value ([1]; rate 500, evaluated after 15 d) was 0. The “damage to plant (100=total damage to plant; 0=no damage to plant), EPHHL” value ([1]; rate 130, evaluated after 15 d) was 0, the “damage to plant (100=total damage to plant; 0=no damage to plant), EPHHL” value ([1]; rate 250, evaluated after 15 d) was 0 and the “damage to plant (100=total damage to plant; 0=no damage to plant), EPHHL” value ([1]; rate 500, evaluated after 15 d) was 0. For the same compound, the “damage to plant (100=total damage to plant; 0=no damage to plant), GLXMA” value ([1]; rate 130, evaluated after 15 d) was 10, the “damage to plant (100=total damage to plant; 0=no damage to plant), GLXMA” value ([1]; rate 250, evaluated after 15 d) was 10 and the “damage to plant (100=total damage to plant; 0=no damage to plant), GLXMA” value ([1]; rate 500, evaluated after 15 d) was 20. For the same compound, the “damage to plant (100=total damage to plant; 0=no damage to plant), IPOHE” value ([1]; rate 130, evaluated after 15 d) was 0, the “damage to plant (100=total damage to plant; 0=no damage to plant), IPOHE” value ([1]; rate 250, evaluated after 15 d) was 0 and the “damage to plant (100=total damage to plant; 0=no damage to plant), IPOHE” value ([1]; rate 500, evaluated after 15 d) was 0. The “damage to plant (100=total damage to plant; 0=no damage to plant), ORYSA” value ([1]; rate 130, evaluated after 15 d) was 0, the “damage to plant (100=total damage to plant; 0=no damage to plant), ORYSA” value ([1]; rate 250, evaluated after 15 d) was 0 and the “damage to plant (100=total damage to plant; 0=no damage to plant), ORYSA” value ([1]; rate 500, evaluated after 15 d) was 20. For the same compound, the “damage to plant (100=total damage to plant; 0=no damage to plant), PANMI” value ([1]; rate 130, evaluated after 15 d) was 0, the “damage to plant (100=total damage to plant; 0=no damage to plant), PANMI” value ([1]; rate 250, evaluated after 15 d) was 0 and the “damage to plant (100=total damage to plant; 0=no damage to plant), PANMI” value ([1]; rate 500, evaluated after 15 d) was 0. The “damage to plant (100=total damage to plant; 0=no damage to plant), SETFA” value ([1]; rate 130, evaluated after 15 d) was 0, the “damage to plant (100=total damage to plant; 0=no damage to plant), SETFA” value ([1]; rate 250, evaluated after 15 d) was 0 and the “damage to plant (100=total damage to plant; 0=no damage to plant), SETFA” value ([1]; rate 500, evaluated after 15 d) was 60. For the same compound, the “damage to plant (100=total damage to plant; 0=no damage to plant), SIDSP” value ([1]; rate 130, evaluated after 15 d) was 0, the “damage to plant (100=total damage to plant; 0=no damage to plant), SIDSP” value ([1]; rate 250, evaluated after 15 d) was 0 and the “damage to plant (100=total damage to plant; 0=no damage to plant), SIDSP” value ([1]; rate 500, evaluated after 15 d) was 0. For the same compound, the “damage to plant (100=total damage to plant; 0=no damage to plant), SORVU” value ([1]; rate 130, evaluated after 15 d) was 0, the “damage to plant (100=total damage to plant; 0=no damage to plant), SORVU” value ([1]; rate 250, evaluated after 15 d) was 0 and the “damage to plant (100=total damage to plant; 0=no damage to plant), SORVU” value ([1]; rate 500, evaluated after 15 d) was 0. The “damage to plant (100=total damage; 0=no damage) IPOHE” value ([2]; Post-Emergence at 15.625 g/ha) was 0, the “damage to plant (100=total damage; 0=no damage) IPOHE” value ([2]; Post-Emergence at 62.5 g/ha) was 0 and the “damage to plant (100=total damage; 0=no damage) IPOHE” value ([2]; Post-Emergence at 250 g/ha) was 0. For the same compound, the “damage to plant, TRZAW” value ([3]; rate 15, 20 DAA) was 0, the “damage to plant, TRZAW” value ([3]; rate 30, 20 DAA) was 0 and the “damage to plant, TRZAW” value ([3]; rate 60, 20 DAA) was 0. For the same compound, the “damage to plant, TRZAW” value ([3]; rate 130, 20 DAA) was 0, the “damage to plant, TRZAW” value ([3]; rate 250, 20 DAA) was 0 and the “damage to plant, TRZAW” value ([3]; rate 500, 20 DAA) was 60. The “damage to plant (100=total damage; 0=no damage) ZEAMX” value ([4]; Pre-Emergence at 15.625 g/ha) was 0, the “damage to plant (100=total damage; 0=no damage) ZEAMX” value ([4]; Pre-Emergence at 62.5 g/ha) was 60 and the “damage to plant (100=total damage; 0=no damage) ZEAMX” value ([4]; Pre-Emergence at 250 g/ha) was 90.

From patent US20220281848A1, “PYRAZOLE-SUBSTITUTED PYRROLIDINONES AS HERBICIDES” (FMC Corporation, priority 2019, published 2022)
